Reference: US11008339B2, “Substituted pyrazole compounds containing pyrimidine and preparation method and use thereof” (Shenyang Sinochem Agrochemicals R&D Co., Ltd., priority 2015, dated 2021)

Test system: cucumber downy mildew
Assay: Protective activity in vivo (whole plant spray) against cucumber downy mildew
Details: 25 mg/L, comparative test (Table 129)
Description: (§1) The method is as followed: The whole plant is used in this test. The compound is dissolved in a proper solvent to get mother solution. The proper solvent is selected from acetone, methanol, DMF and so on according to their dissolving capability to the sample. The volume rate of solvent and testing solution (v/v) is equal to or less than 5%. […] The testing solution is sprayed to the host plant by a special plant sprayer. The plant is inoculated with fungus after 24 hours. According to the infecting characteristic of fungus, the plant is stored in a humidity chamber and then transferred into greenhouse after infection is finished. And the other plants are placed in greenhouse directly.
For `FC(F)(F)c1ccc(-n2ccc(OCCNc3ncnc4scc(Cl)c34)n2)cc1` [Compound 42-69], the “protective activity (%) against cucumber downy mildew” value was 80%.
For `Clc1ccccc1-n1ccc(OCCNc2ncnc3scc(Cl)c23)n1` [Compound 42-17], the “protective activity (%) against cucumber downy mildew” value was 100%.
For `Clc1cc(Cl)c(-n2ccc(OCCNc3ncnc4ccccc34)n2)c(Cl)c1` [Compound 40-30], the “protective activity (%) against cucumber downy mildew” value was 100%.
For `Cc1ncnc(NCCOc2ccn(-c3c(Cl)cc(Cl)cc3Cl)n2)c1Cl` [Compound 31-30], the “protective activity (%) against cucumber downy mildew” value was 100%.
In the case of `FC(F)(F)c1ccc(-n2ccc(OCCCNc3ncnc4ccccc34)n2)cc1` [Compound 127-69], the “protective activity (%) against cucumber downy mildew” value was 70%.
In the case of `CCc1ncnc(NCCOc2ccn(-c3c(Cl)cc(Cl)cc3Cl)n2)c1Cl` [Compound 32-30], the “protective activity (%) against cucumber downy mildew” value was 100%.
In the case of `c1ccc(-n2ccc(OCCNc3ncnc4ccccc34)n2)cc1` [Compound 40-1], the “protective activity (%) against cucumber downy mildew” value was 70%.
With `Clc1ccc(-n2ccc(OCCNc3ncnc4ccccc34)n2)c(Cl)c1` [Compound 40-21] the “protective activity (%) against cucumber downy mildew” value was 100%.

Same assay, conditions: Cucumis sativus, read-out: protective activity (%) against cucumber downy mildew
Work on `Clc1ccccc1-n1ccc(OCCNc2ncnc3ccccc23)n1` [Compound 40-17] yielded an inhibition at 25 µg/mL of 70%.
`Cc1ncnc(NCCOc2ccn(-c3ccc(Cl)cc3)n2)c1Cl` [Compound 31-19] gave an inhibition at 25 µg/mL of 100%.

Test system: wheat powdery mildew
Assay: Protective activity in vivo (whole plant spray) against wheat powdery mildew
Details: 100 mg/L, comparative test (Table 130)
Description: as §1
With `FC(F)(F)c1ccc(-n2ccc(OCCCNc3ncnc4scc(Cl)c34)n2)cc1` [Compound 128-69] the “protective activity (%) against wheat powdery mildew” value was 100%.
For `CCc1ncnc(NC(C)COc2ccn(-c3ccc(Cl)cc3)n2)c1Cl` (stereo not drawn) [Compound 37-19], the “protective activity (%) against wheat powdery mildew” value was 95%.
In the case of `CCc1ncnc(NCCCOc2ccn(-c3ccc(C(F)(F)F)cc3)n2)c1Cl` [Compound 125-69], the “protective activity (%) against wheat powdery mildew” value was 100%.
In the case of `COc1c(Cl)ncnc1NCCCOc1ccn(-c2ccc(C(F)(F)F)cc2)n1` [Compound 123-69], the “protective activity (%) against wheat powdery mildew” value was 100%.
With `Cc1c(Cl)ncnc1NCCCOc1ccn(-c2ccc(C(F)(F)F)cc2)n1` [Compound 122-69] the “protective activity (%) against wheat powdery mildew” value was 100%.
For `FC(F)(F)c1ccc(-n2ccc(OCCNc3ncnc4scc(Cl)c34)n2)cc1` [Compound 42-69], the “protective activity (%) against wheat powdery mildew” value was 100%.
In the case of `Cc1ncnc(NCCOc2ccn(-c3c(Cl)cc(Cl)cc3Cl)n2)c1Cl` [Compound 31-30], the “protective activity (%) against wheat powdery mildew” value was 98%.
With `FC(F)(F)c1ccc(-n2ccc(OCCCNc3ncnc4ccccc34)n2)cc1` [Compound 127-69] the “protective activity (%) against wheat powdery mildew” value was 100%.
With `CCc1ncnc(NCCOc2ccn(-c3c(Cl)cc(Cl)cc3Cl)n2)c1Cl` [Compound 32-30] the “protective activity (%) against wheat powdery mildew” value was 100%.

Test system: corn rust
Assay: Protective activity in vivo (whole plant spray) against corn rust
Details: 25 mg/L, comparative test (Table 131)
Description: as §1
With `CCc1ncnc(NC(C)COc2ccn(-c3ccc(Cl)cc3)n2)c1Cl` (stereo not drawn) [Compound 37-19] the “control effect against corn rust (%)” value was 90%.
In the case of `FC(F)(F)c1ccc(-n2ccc(OCCNc3ncnc4scc(Cl)c34)n2)cc1` [Compound 42-69], the “control effect against corn rust (%)” value was 85%.

Same assay, conditions: 100 mg/L, comparative test (Table 131)
In the case of `CCc1ncnc(NC(C)COc2ccn(-c3ccc(Cl)cc3)n2)c1Cl` (stereo not drawn) [Compound 37-19], the “control effect against corn rust (%)” value was 100%.
With `FC(F)(F)c1ccc(-n2ccc(OCCNc3ncnc4scc(Cl)c34)n2)cc1` [Compound 42-69] the “control effect against corn rust (%)” value was 90%.

Test system: cucumber anthracnose
Assay: Protective activity in vivo (whole plant spray) against cucumber anthracnose
Details: 100 mg/L, comparative test (Table 132)
Description: as §1
For `Cc1ccc(-n2ccc(OCCNc3ncnc4ccccc34)n2)cc1` [Compound 40-57], the “protective activity (%) against cucumber anthracnose” value was 98%.
In the case of `COc1c(Cl)ncnc1NCCCOc1ccn(-c2ccc(C(F)(F)F)cc2)n1` [Compound 123-69], the “protective activity (%) against cucumber anthracnose” value was 90%.
For `Cc1c(Cl)ncnc1NCCCOc1ccn(-c2ccc(C(F)(F)F)cc2)n1` [Compound 122-69], the “protective activity (%) against cucumber anthracnose” value was 85%.
With `FC(F)(F)c1ccc(-n2ccc(OCCNc3ncnc4scc(Cl)c34)n2)cc1` [Compound 42-69] the “protective activity (%) against cucumber anthracnose” value was 95%.
For `FC(F)(F)c1ccc(-n2ccc(OCCCNc3ncnc4ccccc34)n2)cc1` [Compound 127-69], the “protective activity (%) against cucumber anthracnose” value was 92%.

Same assay, conditions: 6.25 ppm, protective, in vivo
With `Cc1ccc(-n2ccc(OCCNc3ncnc4ccccc34)n2)cc1` [Compound 40-57] the “control against cucumber anthracnose” value was 90%.

Same assay, conditions: Cucumis sativus, read-out: protective activity (%) against cucumber anthracnose
`Cc1ncnc(NCCOc2ccn(-c3ccc(Cl)cc3)n2)c1Cl` [Compound 31-19] showed an inhibition at 100 µg/mL of 90%.

Test system: diamond back moth
Assay: Bioactivity test against diamond back moth (airbrush spray, leaf disc)
Assay type: in vivo
Details: 600 mg/L, contrastive test (Table 133)
Description: (§2) Compounds were dissolved in mixed solvent (acetone:methanol=1:1), and diluted to required concentration with water containing 0.1% of tween 80.
(§3) Diamond back moth, armyworm, peach aphid and carmine spider mite were used as targets and the method of spraying by airbrush was used for determination of insecticidal biassays.
The method of spraying by airbrush: The cabbage leaves were made into plates of 2 cm diameter by use of punch. A test solution (0.5 ml) was sprayed by airbrush at the pressure of 0.7 kg/cm^2 to both sides of every plate. 10 Second instar larvae were put into the petri-dishes after the leaf disc air-dried and 3 replicates were set for each treatment. Then the insects were maintained in observation room (25° C., 60˜70% R.H.). Scores were conducted and mortalities were calculated after 72 h.
With `CCc1ncnc(NC(C)COc2ccn(-c3ccc(Cl)cc3)n2)c1Cl` (stereo not drawn) [Compound 37-19] the “Insecticidal activity against diamond back moth (%)” value was 100%.

Same assay, conditions: 600 ppm, mortality after 72 h
In the case of `CCc1ncnc(NC(C)COc2ccn(-c3ccc(Cl)cc3)n2)c1Cl` (stereo not drawn) [Compound 37-19], the “control against diamond back moth” value was 100%.

Test system: Green peach aphids (Myzus Persicae Sulzer)
Assay: Bioactivity test against green peach aphid (airbrush foliar spray)
Assay type: in vivo
Details: 100 mg/L, contrastive test (Table 134)
Description: as §2, §3
Method: Filter papers were put in culture dishes (Diameter=6 cm), and water was dripped on filter papers for preserving moisture. Green peach aphids (Myzus Persicae Sulzer) were maintained on cabbage. Leaves (Diameter=3 cm) of approximately 15-30 aphids were put in the culture dishes. Bioactivity tests were used the method of Airbrush Foliar Spray, pressure=10 psi (0.7 kg/cm2), spray volume=0.5 mL. The studies were conducted at […] 25±1 C in incubator cabinets with 60±5% RH. Survey the survival aphids after 48 h and calculate the death rates.
For `CCc1ncnc(NC(C)COc2ccn(-c3ccc(Cl)cc3)n2)c1Cl` (stereo not drawn) [Compound 37-19], the “Insecticidal activity against peach aphid (%)” value was 84%.

Test system: carmine spider mite
Assay: Bioactivity test against carmine spider mite (airbrush spray)
Assay type: in vivo
Details: 100 mg/L, contrastive test (Table 135)
Description: as §2, §3
The method: Broadbean shoots with two true leaves in pot were taken, the healthy adults of carmine spider mite were inoculated to the leaves. The adults were counted and then sprayed with airbrush at the pressure of 0.7 kg/cm^2 and at dose of 0.5 ml. 3 replicates were set for each treatment. And then they were maintained in standard observation room. Scores were conducted and mortalities were calculated after 72 hrs.
With `CCc1ncnc(NC(C)COc2ccn(-c3ccc(Cl)cc3)n2)c1Cl` (stereo not drawn) [Compound 37-19] the “Insecticidal activity against carmine spider mite (%)” value was 100%.

Same assay, conditions: 600 mg/L, contrastive test (Table 135)
In the case of `CCc1ncnc(NC(C)COc2ccn(-c3ccc(Cl)cc3)n2)c1Cl` (stereo not drawn) [Compound 37-19], the “Insecticidal activity against carmine spider mite (%)” value was 100%.

Test system: not given
Assay: not given
Details: not given
In the case of `Clc1ccccc1-n1ccc(OCCNc2ncnc3ccccc23)n1` [Compound 40-17], the melting point was 186.6 °C.
